Measurements: patent publication US7282339B2, “Competitive immunoassay” (Invitrogen Corporation, priority 2003, dated 2007)

Tested on: ligand-detection complex of Compound 15 and P-Tyr-100 antiphosphotyrosine monoclonal antibody
Assay: Displacement of phosphotyramide-dye ligand analog by phosphotyrosine (Example 21)
Assay type: binding, mouse
Conditions: 10 μM
Experimental: Solutions containing 100 nM ligand analog Compound 15 or ligand-detection complex (100 nM (B573-85-HCK)+100 nM P-Tyr-100 antiphosphotyrosine monoclonal antibody (Cell Signaling Technology, Beverly, Mass.)) were prepared in 50 mM Tris-HCl pH 7.5, 10 mM MgCl2, 0.01% Brij-35, 100 μM ATP, 2 mM DTT, 1 mM EGTA. Fluorescence emission spectra of these samples were recorded on a Hitach F-4500 spectrofluorometer using an excitation wavelength of 470 nm. O-phosho-L-tyrosine (Sigma Chemical Co., St. Louis, Mo.) or phosphotyrosine peptide (phospho-pp60 c-src (521-533); TSTEPQY*QPGENL, Bachem California, Inc. Torrance, Calif.) at a concentration of 10 μM were added to samples of the detection complex and the resulting change in fluorescence was measured. See, FIG. 13.

With `N[C@@H](Cc1ccc(OP(=O)(O)O)cc1)C(=O)O` [Phosphotyrosine, O-phosho-L-tyrosine] as the molecule, how does the “displacement of phosphotyramide-dye ligand analog from antibody binding sites” value read?
The value was “Minimal Displacement”.
